Test results published in article PMC11206519, “Multi-Endpoint Toxicological Assessment of Chrysin Loaded Oil-in-Water Emulsion System in Different Biological Models” (Nanomaterials, 2024).

System: D. melanogaster trans-heterozygous mwh+/+flr3 larvae of the ST cross
Assay: SMART wing spot test, anti-mutagenicity, ST cross
Description: The somatic mutation and recombination test, or the wing spot test, using D. melanogaster was employed as an in vivo system to assess the mutagenicity and anti-mutagenicity of chrysin-ES. Two different crosses were conducted: (i) a standard cross (ST) and (ii) a high bioactivation cross (HB). The standard cross larvae were obtained from virgin female of flr3/TM3, Ser crossed with males of mwh/mwh, while the HB cross larvae expressing cytochrome P450 enzymes involved in xenobiotic biotransformation were obtained from virgin females of ORR/ORR; flr^3/In (3LR) TM3, ri p^psep l (3)89Aa bx^34e e Bd^s crossed with males of mwh/mwh. The flies were cultured at a constant temperature of 25 ± 1 °C and 60–70% RH at photoperiod 12:12 (light/dark). To evaluate the mutagenicity of chrysin and chrysin-ES, a hundred larva F1 progenies derived from the above crossing were fed with instant Drosophila medium (Formula 4-24®), Carolina, Burlington, NC, USA) containing chrysin or chrysin-ES (20–120 µg/mL). DI was used as a negative control, while 20 mM urethane (URE) was used as a positive control. The larvae were reared on each medium until pupation at 25 °C. After that, forty wings of surviving flies in each group were collected for mutant analysis. The mutant spots on the wings, including small single spots, large single spots, and twin spots, were counted. The statistical significance was calculated as previously described by Frei and Würgler.
Furthermore, the anti-mutagenicity of the samples was performed by a similar procedure as mentioned above.

[1] = NMU (sodium nitrite 36 mM: methylurea 10 mM) + 20 μg/mL

O=c1cc(-c2ccccc2)oc2cc(O)cc(O)c12 [Chrysin, 5,7-dihydroxyflavone]
inhibition of MMC mutagenicity (40–80 µg/mL): approximately 30% | Inhibition (%) (EMS 5 mM + 20 μg/mL): 19% | Inhibitory Classification (EMS 5 mM + 20 μg/mL): Negligible | Mutant spots per individual (number of spots), Large Single (EMS 5 mM + 20 μg/mL): 1.28 (51) | Mutant spots per individual (number of spots), Small Single (EMS 5 mM + 20 μg/mL): 4.88 (195) | Mutant spots per individual (number of spots), Total (EMS 5 mM + 20 μg/mL): 6.35 (254) | Mutant spots per individual (number of spots), Twin (EMS 5 mM + 20 μg/mL): 0.20 (8) | Inhibition (%) (EMS 5 mM + 40 μg/mL): 46% | Inhibitory Classification (EMS 5 mM + 40 μg/mL): Moderate | Mutant spots per individual (number of spots), Large Single (EMS 5 mM + 40 μg/mL): 0.93 (37) | Mutant spots per individual (number of spots), Total (EMS 5 mM + 40 μg/mL): 4.20 (168) | Mutant spots per individual (number of spots), Twin (EMS 5 mM + 40 μg/mL): 0.35 (14) | Inhibition (%) (EMS 5 mM + 80 μg/mL): 49% | Inhibitory Classification (EMS 5 mM + 80 μg/mL): Moderate | Mutant spots per individual (number of spots), Large Single (EMS 5 mM + 80 μg/mL): 0.35 (14) | Mutant spots per individual (number of spots), Small Single (EMS 5 mM + 80 μg/mL): 3.50 (140) | Mutant spots per individual (number of spots), Total (EMS 5 mM + 80 μg/mL): 3.95 (158) | Mutant spots per individual (number of spots), Twin (EMS 5 mM + 80 μg/mL): 0.10 (4) | Inhibition (%) (EMS 5 mM + 120 μg/mL): 42% | Inhibitory Classification (EMS 5 mM + 120 μg/mL): Moderate | Mutant spots per individual (number of spots), Large Single (EMS 5 mM + 120 μg/mL): 0.88 (35) | Mutant spots per individual (number of spots), Small Single (EMS 5 mM + 120 μg/mL): 3.40 (136) | Mutant spots per individual (number of spots), Total (EMS 5 mM + 120 μg/mL): 4.55 (182) | Mutant spots per individual (number of spots), Twin (EMS 5 mM + 120 μg/mL): 0.28 (11) | Inhibition (%) (MMC 0.05 mM + 20 μg/mL): −1% | Mutant spots per individual (number of spots), Large Single (MMC 0.05 mM + 20 μg/mL): 1.45 (58) | Mutant spots per individual (number of spots), Small Single (MMC 0.05 mM + 20 μg/mL): 8.05 (322) | Mutant spots per individual (number of spots), Total (MMC 0.05 mM + 20 μg/mL): 9.85 (394) | Mutant spots per individual (number of spots), Twin (MMC 0.05 mM + 20 μg/mL): 0.35 (14) | Inhibition (%) (MMC 0.05 mM + 40 μg/mL): 30% | Inhibitory Classification (MMC 0.05 mM + 40 μg/mL): Weak | Mutant spots per individual (number of spots), Large Single (MMC 0.05 mM + 40 μg/mL): 1.35 (54) | Mutant spots per individual (number of spots), Small Single (MMC 0.05 mM + 40 μg/mL): 4.98 (199) | Mutant spots per individual (number of spots), Total (MMC 0.05 mM + 40 μg/mL): 6.85 (274) | Mutant spots per individual (number of spots), Twin (MMC 0.05 mM + 40 μg/mL): 0.53 (21) | Inhibition (%) (MMC 0.05 mM + 80 μg/mL): 30% | Inhibitory Classification (MMC 0.05 mM + 80 μg/mL): Weak | Mutant spots per individual (number of spots), Large Single (MMC 0.05 mM + 80 μg/mL): 1.63 (65) | Mutant spots per individual (number of spots), Small Single (MMC 0.05 mM + 80 μg/mL): 4.48 (179) | Mutant spots per individual (number of spots), Total (MMC 0.05 mM + 80 μg/mL): 6.83 (273) | Mutant spots per individual (number of spots), Twin (MMC 0.05 mM + 80 μg/mL): 0.73 (29) | Inhibition (%) (MMC 0.05 mM + 120 μg/mL): 77% | Inhibitory Classification (MMC 0.05 mM + 120 μg/mL): Strong | Mutant spots per individual (number of spots), Large Single (MMC 0.05 mM + 120 μg/mL): 0.58 (23) | Mutant spots per individual (number of spots), Small Single (MMC 0.05 mM + 120 μg/mL): 1.50 (60) | Mutant spots per individual (number of spots), Total (MMC 0.05 mM + 120 μg/mL): 2.25 (90) | Mutant spots per individual (number of spots), Twin (MMC 0.05 mM + 120 μg/mL): 0.18 (7) | Inhibition (%) (MMC 0.05 mM + 120 μg/mL, listed as chrysin): approximately 77% | Inhibition (%) [1]: 89% | Inhibitory Classification [1]: Strong | Mutant spots per individual (number of spots), Large Single [1]: 0.03 (1) | Mutant spots per individual (number of spots), Small Single [1]: 0.15 (6) | Mutant spots per individual (number of spots), Total [1]: 0.23 (9) | Mutant spots per individual (number of spots), Twin [1]: 0.05 (2) | Inhibition (%) (NMU + 40 μg/mL): 91% | Inhibitory Classification (NMU + 40 μg/mL): Strong | Mutant spots per individual (number of spots), Large Single (NMU + 40 μg/mL): 0 (0) | Mutant spots per individual (number of spots), Small Single (NMU + 40 μg/mL): 0.18 (7) | Mutant spots per individual (number of spots), Total (NMU + 40 μg/mL): 0.18 (7) | Mutant spots per individual (number of spots), Twin (NMU + 40 μg/mL): 0 (0) | Inhibition (%) (NMU + 80 μg/mL): 91% | Inhibitory Classification (NMU + 80 μg/mL): Strong | Mutant spots per individual (number of spots), Large Single (NMU + 80 μg/mL): 0 (0) | Mutant spots per individual (number of spots), Small Single (NMU + 80 μg/mL): 0.18 (7) | Mutant spots per individual (number of spots), Total (NMU + 80 μg/mL): 0.18 (7) | Mutant spots per individual (number of spots), Twin (NMU + 80 μg/mL): 0 (0) | Inhibition (%) (NMU + 120 μg/mL): 90% | Inhibitory Classification (NMU + 120 μg/mL): Strong | Mutant spots per individual (number of spots), Large Single (NMU + 120 μg/mL): 0.08 (3) | Mutant spots per individual (number of spots), Small Single (NMU + 120 μg/mL): 0.13 (5) | Mutant spots per individual (number of spots), Total (NMU + 120 μg/mL): 0.20 (8) | Mutant spots per individual (number of spots), Twin (NMU + 120 μg/mL): 0 (0) | Inhibition (%) (URE 20 mM + 20 μg/mL): 94% | Inhibitory Classification (URE 20 mM + 20 μg/mL): Strong | Mutant spots per individual (number of spots), Large Single (URE 20 mM + 20 μg/mL): 0 (0) | Mutant spots per individual (number of spots), Small Single (URE 20 mM + 20 μg/mL): 0.23 (9) | Mutant spots per individual (number of spots), Total (URE 20 mM + 20 μg/mL): 0.23 (9) | Mutant spots per individual (number of spots), Twin (URE 20 mM + 20 μg/mL): 0 (0) | Inhibition (%) (URE 20 mM + 40 μg/mL): 91% | Inhibitory Classification (URE 20 mM + 40 μg/mL): Strong | Mutant spots per individual (number of spots), Large Single (URE 20 mM + 40 μg/mL): 0.03 (1) | Mutant spots per individual (number of spots), Small Single (URE 20 mM + 40 μg/mL): 0.33 (13) | Mutant spots per individual (number of spots), Total (URE 20 mM + 40 μg/mL): 0.35 (14) | Mutant spots per individual (number of spots), Twin (URE 20 mM + 40 μg/mL): 0 (0) | Inhibition (%) (URE 20 mM + 80 μg/mL): 91% | Inhibitory Classification (URE 20 mM + 80 μg/mL): Strong | Mutant spots per individual (number of spots), Large Single (URE 20 mM + 80 μg/mL): 0 (0) | Mutant spots per individual (number of spots), Small Single (URE 20 mM + 80 μg/mL): 0.35 (14) | Mutant spots per individual (number of spots), Total (URE 20 mM + 80 μg/mL): 0.35 (14) | Mutant spots per individual (number of spots), Twin (URE 20 mM + 80 μg/mL): 0 (0) | Inhibition (%) (URE 20 mM + 120 μg/mL): 86% | Inhibitory Classification (URE 20 mM + 120 μg/mL): Strong | Mutant spots per individual (number of spots), Large Single (URE 20 mM + 120 μg/mL): 0.03 (1) | Mutant spots per individual (number of spots), Small Single (URE 20 mM + 120 μg/mL): 0.55 (22) | Mutant spots per individual (number of spots), Total (URE 20 mM + 120 μg/mL): 0.56 (23) | Mutant spots per individual (number of spots), Twin (URE 20 mM + 120 μg/mL): 0 (0)
